Experimental data: patent US20080058213A1, “Benzoxazole Compounds” (priority 2004, published 2008)

Key:
Type in all cases: in vivo
[1] = test system: slender amaranth (Amaranthus viridis); test: Soil treatment test for upland field (Test Example 2): slender amaranth; conditions: soil treatment before germination, examined after 3 weeks
From the text: (§1) Evaluation of the herbicidal effect is shown in the following six grades, by comparing the condition of untreated control and growth inhibition (%): • 0: 0%-less than 20% • 1: 20%-less than 40% • 2: 40%-less than 60% • 3: 60%-less than 80% • 4: 80%-less than 100% • 5: 100%.
(§2) Upland field soil was filled in 1/3,000 are pots, seeded with southern crabgrass (Digitaria ciliaris), common lambsquaters (Chenopodium album), slender amaranth (Amaranthus viridis), common purslane (Portulaca oleracea), velvetleaf (Abutilon theophrasti), wheat, corn and soybean. The seeds were covered up with the soil.
(§3) Wettable powders containing the object compounds (1) as identified in Table 1, which were formulated following Preparation Example 2, were diluted with adequate amount of water to secure the prescribed dose of the active ingredient, and uniformly sprayed onto the surface soil layer after the seeding and before germination of the weeds, at an application water of 15 liters per are.
(§4) After placing the test pots in a glasshouse which was kept at an average temperature of 25° C. for 3 weeks, the herbicidal effect was examined.
(§5) Evaluations of the herbicidal effect and phytotoxicity were made in the manner similar to those in the above Test Example 1.

[2] = test system: corn; test: Soil treatment test for upland field (Test Example 2): phytotoxicity to corn; conditions: soil treatment before germination, examined after 3 weeks
From the text: (§6) Evaluation of phytotoxicity is shown in the following six grades, as compared with the condition of untreated control: • 0: normal growth • 1: little damaged • 2: low damaged • 3: medium damaged • 4: serious damaged • 5: complete killed.
as §2, §4

[3] = test system: Monochoria (Monochoria vaginalis); test: Weed control test for paddy field (Test Example 1): Monochoria; conditions: paddy pots, treated at 1.0 leaf stage of barnyard grass, examined after 3 weeks
From the text: (§7) Paddy field soil was filled in 1/10,000 are pots, kneaded with adequate amounts of water and chemical fertilizer, seeded with barnyard grass (Echinochloa crusgalli), Monochoria (Monochoria vaginalis), Japanese bulrush (Scirpus juncoides) and flat sedge (Cyperus serotinus), and further transplanted with 2.0 leaf stage of rice plant. The pots were maintained under the water-filled condition to a depth of 3 cm.
(§8) Wettable powders containing the compounds (1) as identified in Table 1, which were formulated following Production Example 2, were diluted with adequate amount of water and applied to the pots dropwise with pippet at a prescribed dose of the active ingredients per are, at 1.0 leaf stage of the barnyard grass.
(§9) After placing the pots in a glasshouse which was controlled at an average temperature of 25° C. for 3 weeks, herbicidal effect was examined.
as §1

[4] = test system: flat sedge (Cyperus serotinus); test: Weed control test for paddy field (Test Example 1): flat sedge; conditions: paddy pots, treated at 1.0 leaf stage of barnyard grass, examined after 3 weeks
From the text: as §7, §8, §9, §1

[5] = test system: common lambsquaters (Chenopodium album); test: Soil treatment test for upland field (Test Example 2): common lambsquaters; conditions: soil treatment before germination, examined after 3 weeks
From the text: as §1, §2, §3, §4, §5

[6] = test system: rice plant; test: Weed control test for paddy field (Test Example 1): phytotoxicity to rice plant; conditions: paddy pots, treated at 1.0 leaf stage of barnyard grass, examined after 3 weeks
From the text: as §7, §8, §9, §6

[7] = test system: wheat; test: Soil treatment test for upland field (Test Example 2): phytotoxicity to wheat; conditions: soil treatment before germination, examined after 3 weeks
From the text: as §6, §2, §4

[8] = test system: Japanese bulrush (Scirpus juncoides); test: Weed control test for paddy field (Test Example 1): Japanese bulrush; conditions: paddy pots, treated at 1.0 leaf stage of barnyard grass, examined after 3 weeks
From the text: as §7, §8, §9, §1

[9] = test system: southern crabgrass (Digitaria ciliaris); test: Soil treatment test for upland field (Test Example 2): southern crabgrass; conditions: soil treatment before germination, examined after 3 weeks
From the text: as §1, §2, §3, §4, §5

[10] = test system: velvetleaf (Abutilon theophrasti); test: Soil treatment test for upland field (Test Example 2): velvetleaf; conditions: soil treatment before germination, examined after 3 weeks
From the text: as §1, §2, §3, §4, §5

[11] = test system: common purslane (Portulaca oleracea); test: Soil treatment test for upland field (Test Example 2): common purslane; conditions: soil treatment before germination, examined after 3 weeks
From the text: as §1, §2, §3, §4, §5

[12] = test system: soybean; test: Soil treatment test for upland field (Test Example 2): phytotoxicity to soybean; conditions: soil treatment before germination, examined after 3 weeks
From the text: as §6, §2, §4

[13] = test system: barnyard grass (Echinochloa crusgalli); test: Weed control test for paddy field (Test Example 1): barnyard grass; conditions: paddy pots, treated at 1.0 leaf stage of barnyard grass, examined after 3 weeks
From the text: as §7, §8, §9, §1

[14] = test system: common lambsquaters; test: Foliage treatment test for upland field (Test Example 3): common lambsquaters; conditions: foliage treatment at 1.0-2.0 leaf stage of southern crabgrass, examined after 3 weeks
From the text: as §1
(§10) Compost mixed soil was filled in 1/3,000 are pots, seeded with southern crabgrass, common lambsquaters, slender amaranth, common purslane, velvetleaf, wheat, corn and soybean. The seeds were covered up with the soil and cultured in a glasshouse kept at 25° C. on the average.
(§11) Wettable powders containing the object compounds (1) as identified in Table 1, which were formulated following Preparation Example 2, were diluted with water to the prescribed dose of the active ingredient, and uniformly sprayed onto the weeds at 1.0-2.0 leaf stage of the southern crabgrass at an application water of 15 liters per are.
(§12) After placing the test pots in a grasshouse kept at 25° C. on the average for 3 weeks, the herbicidal effect was examined.
(§13) Evaluation of the herbicidal effect was conducted in the similar manner to Test Example 1.

[15] = test system: southern crabgrass; test: Foliage treatment test for upland field (Test Example 3): southern crabgrass; conditions: foliage treatment at 1.0-2.0 leaf stage of southern crabgrass, examined after 3 weeks
From the text: as §1, §10, §11, §12, §13

[16] = test system: slender amaranth; test: Foliage treatment test for upland field (Test Example 3): slender amaranth; conditions: foliage treatment at 1.0-2.0 leaf stage of southern crabgrass, examined after 3 weeks
From the text: as §1, §10, §11, §12, §13

[17] = test system: velvetleaf; test: Foliage treatment test for upland field (Test Example 3): velvetleaf; conditions: foliage treatment at 1.0-2.0 leaf stage of southern crabgrass, examined after 3 weeks
From the text: as §1, §10, §11, §12, §13

[18] = test system: soybean; test: Foliage treatment test for upland field (Test Example 3): phytotoxicity to soybean; conditions: foliage treatment at 1.0-2.0 leaf stage of southern crabgrass, examined after 3 weeks
Protocol: as §6, §10, §12

[19] = test system: common purslane; test: Foliage treatment test for upland field (Test Example 3): common purslane; conditions: foliage treatment at 1.0-2.0 leaf stage of southern crabgrass, examined after 3 weeks
From the text: as §1, §10, §11, §12, §13

[20] = test system: corn; test: Foliage treatment test for upland field (Test Example 3): phytotoxicity to corn; conditions: foliage treatment at 1.0-2.0 leaf stage of southern crabgrass, examined after 3 weeks
Protocol: as §6, §10, §12

[21] = test system: wheat; test: Foliage treatment test for upland field (Test Example 3): phytotoxicity to wheat; conditions: foliage treatment at 1.0-2.0 leaf stage of southern crabgrass, examined after 3 weeks
Protocol: as §6, §10, §12

CSCC(=Cc1cccc(C(F)(F)F)c1)c1nc2cc(Cl)ccc2o1 [Compound 30]
Herbicidal Effect slender amaranth ([1]; dose 2.5 g ai/a): 5 (100%)
Herbicidal Effect slender amaranth ([1]; dose 5 g ai/a): 5 (100%)
Phytotoxicity corn ([2]; dose 2.5 g ai/a): 0
Phytotoxicity corn ([2]; dose 5 g ai/a): 0
Herbicidal Effect Monochoria vaginalis ([3]; dose 2.5 g ai/a): 5 (100%)
Herbicidal Effect Monochoria vaginalis ([3]; dose 5 g ai/a): 5 (100%)
Herbicidal Effect Flat sedge ([4]; dose 2.5 g ai/a): 3 (60%-less than 80%)
Herbicidal Effect Flat sedge ([4]; dose 5 g ai/a): 5 (100%)
Herbicidal Effect common lambsquaters ([5]; dose 2.5 g ai/a): 4 (80%-less than 100%)
Herbicidal Effect common lambsquaters ([5]; dose 5 g ai/a): 4 (80%-less than 100%)
Phytotoxicity Rice plant ([6]; dose 2.5 g ai/a): 0
Phytotoxicity Rice plant ([6]; dose 5 g ai/a): 0
Phytotoxicity wheat ([7]; dose 2.5 g ai/a): 0
Phytotoxicity wheat ([7]; dose 5 g ai/a): 1
Herbicidal Effect Japanese bulrush ([8]; dose 2.5 g ai/a): 4 (80%-less than 100%)
Herbicidal Effect Japanese bulrush ([8]; dose 5 g ai/a): 5 (100%)
Herbicidal Effect southern crabgrass ([9]; dose 2.5 g ai/a): 3 (60%-less than 80%)
Herbicidal Effect southern crabgrass ([9]; dose 5 g ai/a): 5 (100%)
Herbicidal Effect velvetleaf ([10]; dose 2.5 g ai/a): 2 (40%-less than 60%)
Herbicidal Effect velvetleaf ([10]; dose 5 g ai/a): 2 (40%-less than 60%)
Herbicidal Effect common purslane ([11]; dose 2.5 g ai/a): 5 (100%)
Herbicidal Effect common purslane ([11]; dose 5 g ai/a): 5 (100%)
Phytotoxicity soybean ([12]; dose 2.5 g ai/a): 0
Phytotoxicity soybean ([12]; dose 5 g ai/a): 0
Herbicidal Effect Barnyard grass ([13]; dose 2.5 g ai/a): 4 (80%-less than 100%)
Herbicidal Effect Barnyard grass ([13]; dose 5 g ai/a): 5 (100%)

CCOCC(=Cc1cccc(C(F)(F)F)c1)c1nc2cc(C(F)(F)F)ccc2o1 [Compound 54]
Herbicidal Effect Common lambsquatters ([14]; dose 2.5 g ai/a): 5 (100%)
Herbicidal Effect Common lambsquatters ([14]; dose 5 g ai/a): 5 (100%)
Herbicidal Effect slender amaranth ([1]; dose 2.5 g ai/a): 5 (100%)
Herbicidal Effect slender amaranth ([1]; dose 5 g ai/a): 5 (100%)
Herbicidal Effect southern crabgrass ([15]; dose 2.5 g ai/a): 5 (100%)
Herbicidal Effect southern crabgrass ([15]; dose 5 g ai/a): 5 (100%)
Phytotoxicity corn ([2]; dose 2.5 g ai/a): 1
Phytotoxicity corn ([2]; dose 5 g ai/a): 1
Herbicidal Effect Monochoria vaginalis ([3]; dose 2.5 g ai/a): 5 (100%)
Herbicidal Effect Monochoria vaginalis ([3]; dose 5 g ai/a): 5 (100%)
Herbicidal Effect Flat sedge ([4]; dose 2.5 g ai/a): 3 (60%-less than 80%)
Herbicidal Effect Flat sedge ([4]; dose 5 g ai/a): 4 (80%-less than 100%)
Herbicidal Effect slender amaranth ([16]; dose 2.5 g ai/a): 5 (100%)
Herbicidal Effect slender amaranth ([16]; dose 5 g ai/a): 5 (100%)
Herbicidal Effect velvetleaf ([17]; dose 2.5 g ai/a): 5 (100%)
Herbicidal Effect velvetleaf ([17]; dose 5 g ai/a): 5 (100%)
Herbicidal Effect common lambsquaters ([5]; dose 2.5 g ai/a): 5 (100%)
Herbicidal Effect common lambsquaters ([5]; dose 5 g ai/a): 5 (100%)
Phytotoxicity Rice plant ([6]; dose 2.5 g ai/a): 1
Phytotoxicity Rice plant ([6]; dose 5 g ai/a): 1
Phytotoxicity wheat ([7]; dose 2.5 g ai/a): 1
Phytotoxicity wheat ([7]; dose 5 g ai/a): 1
Herbicidal Effect Japanese bulrush ([8]; dose 2.5 g ai/a): 4 (80%-less than 100%)
Herbicidal Effect Japanese bulrush ([8]; dose 5 g ai/a): 5 (100%)
Phytotoxicity soybean ([18]; dose 2.5 g ai/a): 2
Phytotoxicity soybean ([18]; dose 5 g ai/a): 2
Herbicidal Effect southern crabgrass ([9]; dose 2.5 g ai/a): 5 (100%)
Herbicidal Effect southern crabgrass ([9]; dose 5 g ai/a): 5 (100%)
Herbicidal Effect velvetleaf ([10]; dose 2.5 g ai/a): 5 (100%)
Herbicidal Effect velvetleaf ([10]; dose 5 g ai/a): 5 (100%)
Herbicidal Effect common purslane ([11]; dose 2.5 g ai/a): 5 (100%)
Herbicidal Effect common purslane ([11]; dose 5 g ai/a): 5 (100%)
Herbicidal Effect common purslane ([19]; dose 2.5 g ai/a): 5 (100%)
Herbicidal Effect common purslane ([19]; dose 5 g ai/a): 5 (100%)
Phytotoxicity corn ([20]; dose 2.5 g ai/a): 1
Phytotoxicity corn ([20]; dose 5 g ai/a): 2
Phytotoxicity soybean ([12]; dose 2.5 g ai/a): 0
Phytotoxicity soybean ([12]; dose 5 g ai/a): 1
Phytotoxicity wheat ([21]; dose 2.5 g ai/a): 1
Phytotoxicity wheat ([21]; dose 5 g ai/a): 1
Herbicidal Effect Barnyard grass ([13]; dose 2.5 g ai/a): 5 (100%)
Herbicidal Effect Barnyard grass ([13]; dose 5 g ai/a): 5 (100%)
